Measured values as given in patent US8993606B2, “Oral formulations for treating metal overload” (FerroKin BioSciences, Inc., priority 2011, dated 2015).
Read-outs that look alike come from different tables or passages of the source.

Key:
[1] = Example 9: single-dose study in healthy human subjects 30-75 mg/kg and 20 mg/kg x 2 (PK); format: in vivo; conditions: for Vd/F / AUC(0-inf) / AUC(0-t) / Cmax / half-life / Tmax / CL renal: human; for Vd/F / AUC(0-inf) / AUC(0-t) / Cmax / half-life / Tmax: plasma; for Vd/F: read-out: VZ/F; for CL renal: urine and plasma
Experimental: Example 9 was a single-dose escalating study in healthy volunteers. The objectives of the study were to assess the safety, tolerability, pharmacokinetic, and pharmacodynamics of single ascending doses of Compound 1. The doses tested were 30, 40, 50, 60, and 75 mg/kg once daily and a regimen of 20 mg/kg twice a day, which extended the range of doses evaluated. This Example confirms the earlier results obtained with higher dosage, as described in Example 7.
(§1) This was a single-center, double-blind, placebo-controlled study of ascending single oral doses of Compound 1. Six cohorts of 8 subjects (30 and 50 mg/kg single doses) or 5 subjects (40, 60, and 75 mg/kg single doses and 20 mg/kg×2 doses at 12 hour intervals) were dosed sequentially with Compound 1. Within each cohort, 7 or 4 subjects received Compound 1 and 1 subject received placebo. Subjects in the 20 mg/kg×2 doses cohort received a dose the evening prior to the study day (Day −1), approximately 12 hours prior to dosing on Day 1. The dose administered on Day −1 followed a 2-hour fast and that on Day 1 a 10-hour fast.
A total of 36 subjects were enrolled and all subjects completed the study. The 30 subjects that received active drug comprised the pharmacokinetic (PK) analysis population.
[…] subjects receiving a single dose, blood samples for the measurement of the total (free and iron bound complex) plasma concentrations of Compound 1 were collected before and 0.25, 0.5, 0.75, 1, 1.25, 1.5, 2, 2.5, 4, 8, 12, 24, 48, 72, and 96 hours after dosing. Subjects receiving two doses of 20 mg/kg had blood collected prior and 0.5, 1, 1.5, 2, and 2.5 hours after the first dose. After the second dose in the morning of Day 1, the sampling schedule was identical to that used for subjects receiving a single dose.
In all cohorts, urine was collected in pooled intervals of 0-4, 4-8, 8-12 and 12-24 hours after the dose on Day 1 for the analysis of Compound 1 concentrations.

healthy subjects = experiment: Safety: single-dose study in healthy subjects (30-75 mg/kg, 20 mg/kg bid); format: in vivo
Experimental: as §1
Thirty-one subjects were enrolled and completed the study: 26 received a single oral dose of Compound 1 [30 (7 subjects), 40 (4 subjects), 50 (7 subjects), 60 (4 subjects) and 75 mg/kg (4 subjects)], 4 subjects previously administered a single dose at 30 and 40 mg/kg received 20 mg/kg bid and 5 received placebo. […] Treatment-emergent adverse events were reported for 13 of the 26 subjects receiving Compound 1 (50%). TEAEs in the active groups included catheter site erythema or hematoma (3 subjects), fatigue (1 subject), headache (2 subjects), dysgueusia (1 subject), presyncope (1 subject), abdominal pain (1 subject), nausea (1 subject), back pain (1 subject), muscle spasm (1 subject), decreased appetite (1 subject), chromaturia (1 subject).

[2] = test system: pediatric subjects (aged 6-18 years) with documented transfusional iron overload; experiment: Safety: pediatric Phase 2 study; format: in vivo, human
Excerpt: A pediatric study is an ongoing Phase 2 multicenter, randomized, open-label study of pediatric subjects (aged 6-18 years) with documented transfusional iron overload in need of chelation therapy. 6 subjects (aged 12-<18 years) of a planned 30 subjects had been enrolled and administered investigational product. These subjects received a single dose for pharmacokinetic analysis with the option to continue in the 48-week study. […] Dosing was temporarily discontinued for 2 subjects; 1 subject for moderate decrease in neutrophil count, which was considered possibly related, and 1 for a mild upper respiratory tract infection that was considered not related. Treatment-emergent AEs were reported for 5 of the 6 subjects. Treatment emergent AEs considered possibly related to the investigational product include arthralgia (1), decreased neutrophil count (1), neutropenia (1), and headache (1).

[3] = 20 mg/kg × 2 at 12-hour interval
[4] = oral, 20 mg/kg × 2, for the total dose of 40 mg/kg
[5] = single oral dose 30-75 mg/kg, 20 mg/kg bid

Structure (SMILES): COCCOCCOCCOc1cccc(C2=N[C@@](C)(C(=O)O)CS2)c1O [Compound 1, (S)-4,5-Dihydro-2-[2-hydroxy-3-(3,6,9-trioxadecyloxy)phenyl]-4-methyl-4-thiazolecarboxylate magnesium hydroxide]
- CL/F ([1]; 20 mg/kg × 2, calculated with total dose of 40 mg/kg): 235 ± 96.2 mL/min
- Ue(0-24) [1, 3]: 805 ± 208 mg
- λZ [1, 3]: 0.0744 ± 0.0158 h⁻¹
- dose recovered in the urine over 24-hour post-dose period ([1]; 30 and 40 mg/kg): approximately 55%
- Vd/F ([1]; oral, 20 mg/kg × 2, calculated with total dose of 40 mg/kg): 208 ± 136 L
- AUC(0-inf) [1, 4]: 231 µg·h/mL
- AUC(0-t) [1, 4]: 221 µg·h/mL
- Cmax ([1]; oral, 20 mg/kg × 2 at 12-hour interval, for the second dose): 52.9 µg/mL
- half-life ([1]; oral, 20 mg/kg × 2 at 12-hour interval, read-out: t1/2 (converted)): 9.64 ± 2.28 h
- Tmax ([1]; oral, 20 mg/kg × 2 at 12-hour interval, second dose, median, read-out: tmax): 0.75 h
- Tmax ([1]; oral, across cohorts, read-out: median values for Tmax, range): 1 to 1.5 h
- half-life ([1]; oral, across cohorts, read-out: t1/2, range): 8.36 to 18.6 h
- AUC(0-inf) ([1]; single oral dose 30 mg/kg): 161 µg·h/mL
- AUC(0-t) ([1]; single oral dose 30 mg/kg): 155 µg·h/mL
- Cmax ([1]; single oral dose 30 mg/kg): 68.2 µg/mL
- Tmax ([1]; single oral dose 30 mg/kg, median, read-out: tmax): 1 h
- Vd/F ([1]; single oral dose 30 mg/kg): 248 ± 58.8 L
- half-life ([1]; single oral dose 30 mg/kg, read-out: t1/2 (converted)): 12.1 ± 3.05 h
- AUC(0-inf) ([1]; single oral dose 40 mg/kg): 195 µg·h/mL
- AUC(0-t) ([1]; single oral dose 40 mg/kg): 205 µg·h/mL
- Cmax ([1]; single oral dose 40 mg/kg): 87.9 µg/mL
- Tmax ([1]; single oral dose 40 mg/kg, median, read-out: tmax): 1.38 h
- Vd/F ([1]; single oral dose 40 mg/kg): 542 ± 657 L
- half-life ([1]; single oral dose 40 mg/kg, read-out: t1/2 (converted)): 18.6 ± 19.2 h
- AUC(0-inf) ([1]; single oral dose 50 mg/kg): 236 µg·h/mL
- AUC(0-t) ([1]; single oral dose 50 mg/kg): 254 µg·h/mL
- Cmax ([1]; single oral dose 50 mg/kg): 91.7 µg/mL
- Tmax ([1]; single oral dose 50 mg/kg, median, read-out: tmax): 1.5 h
- Vd/F ([1]; single oral dose 50 mg/kg): 338 ± 272 L
- half-life ([1]; single oral dose 50 mg/kg, read-out: t1/2 (converted)): 12.8 ± 7.66 h
- AUC(0-inf) ([1]; single oral dose 60 mg/kg): 205 µg·h/mL
- AUC(0-t) ([1]; single oral dose 60 mg/kg): 204 µg·h/mL
- Cmax ([1]; single oral dose 60 mg/kg): 82.3 µg/mL
- Tmax ([1]; single oral dose 60 mg/kg, median, read-out: tmax): 1.38 h
- Vd/F ([1]; single oral dose 60 mg/kg): 454 ± 363 L
- half-life ([1]; single oral dose 60 mg/kg, read-out: t1/2 (converted)): 11 ± 5.99 h
- AUC(0-inf) ([1]; single oral dose 75 mg/kg): 247 µg·h/mL
- AUC(0-t) ([1]; single oral dose 75 mg/kg): 244 µg·h/mL
- Cmax ([1]; single oral dose 75 mg/kg): 84.6 µg/mL
- Tmax ([1]; single oral dose 75 mg/kg, median, read-out: tmax): 1.38 h
- Vd/F ([1]; single oral dose 75 mg/kg): 342 ± 83.6 L
- half-life ([1]; single oral dose 75 mg/kg, read-out: t1/2 (converted)): 8.36 ± 3.84 h
- CL renal ([1]; oral, 20 mg/kg × 2 at 12-hour interval, read-out: CLr): 131 ± 18.7 mL/min
- CL renal ([1]; oral, not dependent upon dose, read-out: Renal clearance, average): ~140 mL/min
- CL renal ([1]; single oral dose 30 mg/kg, read-out: CLr): 139 ± 13.2 mL/min
- CL renal ([1]; single oral dose 40 mg/kg, read-out: CLr): 152 ± 18 mL/min
- CL renal ([1]; single oral dose 50 mg/kg, read-out: CLr): 103 ± 16.2 mL/min
- CL renal ([1]; single oral dose 60 mg/kg, read-out: CLr): 147 ± 28.2 mL/min
- CL renal ([1]; single oral dose 75 mg/kg, read-out: CLr): 165 ± 42.7 mL/min
- CL/F ([1]; single oral dose 30 mg/kg): 239 ± 17.2 mL/min
- Fe(0-24) ([1]; single oral dose 30 mg/kg): 54.8 ± 8.99 % Dose
- Ue(0-24) ([1]; single oral dose 30 mg/kg): 1,260 ± 255.3 mg
- λZ ([1]; single oral dose 30 mg/kg): 0.0615 ± 0.0200 h⁻¹
- CL/F ([1]; single oral dose 40 mg/kg): 290 ± 73.8 mL/min
- Fe(0-24) ([1]; single oral dose 40 mg/kg): 57.1 ± 8.60 % Dose
- Ue(0-24) ([1]; single oral dose 40 mg/kg): 1,820 ± 397 mg
- λZ ([1]; single oral dose 40 mg/kg): 0.0677 ± 0.0439 h⁻¹
- CL/F ([1]; single oral dose 50 mg/kg): 286 ± 56.1 mL/min
- Fe(0-24) ([1]; single oral dose 50 mg/kg): 40.2 ± 8.69 % Dose
- Ue(0-24) ([1]; single oral dose 50 mg/kg): 1,500 ± 434 mg
- λZ ([1]; single oral dose 50 mg/kg): 0.0664 ± 0.0292 h⁻¹
- CL/F ([1]; single oral dose 60 mg/kg): 435 ± 117.0 mL/min
- Fe(0-24) ([1]; single oral dose 60 mg/kg): 33.7 ± 8.37 % Dose
- Ue(0-24) ([1]; single oral dose 60 mg/kg): 1,713 ± 480 mg
- λZ ([1]; single oral dose 60 mg/kg): 0.0786 ± 0.0393 h⁻¹
- CL/F ([1]; single oral dose 75 mg/kg): 540 ± 237 mL/min
- Fe(0-24) ([1]; single oral dose 75 mg/kg): 35.0 ± 15.1 % Dose
- Ue(0-24) ([1]; single oral dose 75 mg/kg): 2,199 ± 1,189 mg
- λZ ([1]; single oral dose 75 mg/kg): 0.0943 ± 0.0383 h⁻¹
- dose recovered in the urine over 24-hour post-dose period ([1]; the 3 higher doses (50, 60, 75 mg/kg)): approximately 38%
- subjects with treatment-emergent adverse events (healthy subjects; 13 of the 26 subjects): 50%
- TEAE abdominal pain (healthy subjects; active groups, 26 subjects): 1 subject
- TEAE back pain (healthy subjects; active groups, 26 subjects): 1 subject
- TEAE catheter site erythema or hematoma (healthy subjects; active groups, 26 subjects): 3 subjects
- TEAE chromaturia (healthy subjects; active groups, 26 subjects): 1 subject
- TEAE decreased appetite (healthy subjects; active groups, 26 subjects): 1 subject
- TEAE dysgueusia (healthy subjects; active groups, 26 subjects): 1 subject
- TEAE fatigue (healthy subjects; active groups, 26 subjects): 1 subject
- TEAE headache (healthy subjects; active groups, 26 subjects): 2 subjects
- TEAE muscle spasm (healthy subjects; active groups, 26 subjects): 1 subject
- TEAE nausea (healthy subjects; active groups, 26 subjects): 1 subject
- TEAE presyncope (healthy subjects; active groups, 26 subjects): 1 subject
- intensity of all AEs (healthy subjects; after treatment): mild intensity
- serious side effects in humans (healthy subjects; daily dose higher than 40 mg/kg of body weight): no serious side effects were observed
- deaths, SAEs, withdrawals due to AEs (healthy subjects; [5]): no deaths, SAEs), or withdrawals due to AEs
- tolerability (healthy subjects; [5]): well tolerated
- possibly related TEAE arthralgia ([2]; 6 subjects): 1
- possibly related TEAE decreased neutrophil count ([2]; 6 subjects): 1
- possibly related TEAE headache ([2]; 6 subjects): 1
- possibly related TEAE neutropenia ([2]; 6 subjects): 1
- SAEs ([2]; 6 subjects aged 12-<18 years): No SAEs have been reported
- subjects with treatment-emergent AEs ([2]; 6 subjects aged 12-<18 years): 5 of the 6
